Experiments:
[1] = molecular target: 5-hydroxytryptamine receptor 2A (Homo sapiens, UniProt P28223); format: functional, cell-based
[2] = molecular target: T1, Alpha-1A adrenergic receptor (Homo sapiens, UniProt P35348)
T1 sequence (P35348 whole entry): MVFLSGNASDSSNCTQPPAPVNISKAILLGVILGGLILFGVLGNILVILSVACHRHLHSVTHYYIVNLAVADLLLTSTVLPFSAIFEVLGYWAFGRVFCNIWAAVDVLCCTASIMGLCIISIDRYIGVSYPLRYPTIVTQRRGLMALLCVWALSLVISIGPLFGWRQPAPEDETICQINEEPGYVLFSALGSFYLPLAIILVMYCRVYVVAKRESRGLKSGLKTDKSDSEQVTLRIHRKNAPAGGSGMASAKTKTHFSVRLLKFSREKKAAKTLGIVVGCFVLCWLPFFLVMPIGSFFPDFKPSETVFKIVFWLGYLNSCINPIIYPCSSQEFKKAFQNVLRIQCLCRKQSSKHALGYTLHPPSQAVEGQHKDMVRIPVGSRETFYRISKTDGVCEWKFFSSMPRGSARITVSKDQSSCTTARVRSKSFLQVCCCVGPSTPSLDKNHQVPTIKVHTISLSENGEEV

[3] = molecular target: 5-hydroxytryptamine receptor 2B (Homo sapiens, UniProt P41595)
5-hydroxytryptamine receptor 2B, sequence (P41595 whole entry): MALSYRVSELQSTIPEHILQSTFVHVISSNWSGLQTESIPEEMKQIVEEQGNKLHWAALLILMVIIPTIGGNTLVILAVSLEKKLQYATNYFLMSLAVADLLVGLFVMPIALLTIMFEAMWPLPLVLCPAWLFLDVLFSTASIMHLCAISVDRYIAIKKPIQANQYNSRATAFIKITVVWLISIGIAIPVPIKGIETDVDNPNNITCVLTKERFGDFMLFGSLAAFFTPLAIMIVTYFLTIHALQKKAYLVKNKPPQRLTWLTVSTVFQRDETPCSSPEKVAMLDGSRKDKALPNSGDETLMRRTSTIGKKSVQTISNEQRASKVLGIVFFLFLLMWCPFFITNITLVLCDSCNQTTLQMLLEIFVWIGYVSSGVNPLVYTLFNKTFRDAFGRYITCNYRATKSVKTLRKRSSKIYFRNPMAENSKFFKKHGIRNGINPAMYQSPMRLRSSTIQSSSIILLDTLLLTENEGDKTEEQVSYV

[4] = molecular target: T2, Corticotropin-releasing factor receptor 2 (Homo sapiens, UniProt Q13324)
T2 sequence (Q13324 whole entry): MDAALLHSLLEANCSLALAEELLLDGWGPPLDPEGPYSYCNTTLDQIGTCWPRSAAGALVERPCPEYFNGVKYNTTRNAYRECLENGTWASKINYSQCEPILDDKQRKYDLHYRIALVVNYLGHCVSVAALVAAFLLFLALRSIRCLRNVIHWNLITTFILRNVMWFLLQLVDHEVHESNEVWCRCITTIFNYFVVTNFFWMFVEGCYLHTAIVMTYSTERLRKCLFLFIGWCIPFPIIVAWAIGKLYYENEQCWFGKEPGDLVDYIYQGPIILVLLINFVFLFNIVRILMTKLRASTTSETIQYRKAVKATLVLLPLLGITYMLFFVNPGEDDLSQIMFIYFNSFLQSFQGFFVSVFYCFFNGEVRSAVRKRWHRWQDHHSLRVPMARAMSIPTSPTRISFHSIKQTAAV

[5] = molecular target: Neurotensin receptor type 1 (Homo sapiens, UniProt P30989)
Neurotensin receptor type 1, sequence (P30989 whole entry): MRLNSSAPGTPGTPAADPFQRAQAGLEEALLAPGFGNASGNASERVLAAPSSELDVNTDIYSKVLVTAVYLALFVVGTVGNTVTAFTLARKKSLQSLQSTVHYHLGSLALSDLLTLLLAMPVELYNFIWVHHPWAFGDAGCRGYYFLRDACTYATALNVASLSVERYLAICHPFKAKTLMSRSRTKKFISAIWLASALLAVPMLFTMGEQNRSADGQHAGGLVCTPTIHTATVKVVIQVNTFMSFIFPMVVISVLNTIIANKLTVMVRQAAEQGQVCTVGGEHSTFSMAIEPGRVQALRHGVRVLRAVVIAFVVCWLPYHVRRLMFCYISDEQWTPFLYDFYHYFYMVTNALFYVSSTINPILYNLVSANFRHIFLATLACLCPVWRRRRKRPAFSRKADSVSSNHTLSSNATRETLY

[6] = molecular target: T3, Endothelin receptor type B (Homo sapiens, UniProt P24530)
T3 sequence (P24530 whole entry): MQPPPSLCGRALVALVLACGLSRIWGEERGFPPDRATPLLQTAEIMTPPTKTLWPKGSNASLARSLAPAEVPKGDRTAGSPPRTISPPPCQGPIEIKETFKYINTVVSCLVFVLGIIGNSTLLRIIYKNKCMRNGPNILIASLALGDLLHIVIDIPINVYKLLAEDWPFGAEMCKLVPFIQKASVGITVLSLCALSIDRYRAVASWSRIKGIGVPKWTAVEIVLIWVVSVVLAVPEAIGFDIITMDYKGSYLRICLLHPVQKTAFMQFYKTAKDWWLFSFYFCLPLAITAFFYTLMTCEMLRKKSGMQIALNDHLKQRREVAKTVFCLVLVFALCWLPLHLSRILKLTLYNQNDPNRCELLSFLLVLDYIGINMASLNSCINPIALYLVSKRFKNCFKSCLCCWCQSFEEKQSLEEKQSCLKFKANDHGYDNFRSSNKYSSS

Cannabinoid receptor 1 = Cannabinoid receptor 1 (Homo sapiens, UniProt P21554)
Cannabinoid receptor 1, sequence (P21554 whole entry): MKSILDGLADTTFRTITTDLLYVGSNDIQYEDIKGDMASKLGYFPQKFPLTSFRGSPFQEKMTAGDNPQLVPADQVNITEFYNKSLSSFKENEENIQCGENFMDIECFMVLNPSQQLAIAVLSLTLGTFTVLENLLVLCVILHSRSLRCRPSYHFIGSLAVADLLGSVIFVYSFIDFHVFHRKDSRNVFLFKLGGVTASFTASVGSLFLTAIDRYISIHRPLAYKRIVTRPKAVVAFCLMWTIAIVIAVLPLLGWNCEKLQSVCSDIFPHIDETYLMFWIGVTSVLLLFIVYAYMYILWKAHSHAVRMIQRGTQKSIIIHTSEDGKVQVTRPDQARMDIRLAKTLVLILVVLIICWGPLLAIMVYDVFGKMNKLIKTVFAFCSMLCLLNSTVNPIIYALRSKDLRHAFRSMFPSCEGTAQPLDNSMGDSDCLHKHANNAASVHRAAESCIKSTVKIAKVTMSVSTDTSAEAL

D(1A) dopamine receptor = D(1A) dopamine receptor (Homo sapiens, UniProt P21728)
D(1A) dopamine receptor, sequence (P21728 whole entry): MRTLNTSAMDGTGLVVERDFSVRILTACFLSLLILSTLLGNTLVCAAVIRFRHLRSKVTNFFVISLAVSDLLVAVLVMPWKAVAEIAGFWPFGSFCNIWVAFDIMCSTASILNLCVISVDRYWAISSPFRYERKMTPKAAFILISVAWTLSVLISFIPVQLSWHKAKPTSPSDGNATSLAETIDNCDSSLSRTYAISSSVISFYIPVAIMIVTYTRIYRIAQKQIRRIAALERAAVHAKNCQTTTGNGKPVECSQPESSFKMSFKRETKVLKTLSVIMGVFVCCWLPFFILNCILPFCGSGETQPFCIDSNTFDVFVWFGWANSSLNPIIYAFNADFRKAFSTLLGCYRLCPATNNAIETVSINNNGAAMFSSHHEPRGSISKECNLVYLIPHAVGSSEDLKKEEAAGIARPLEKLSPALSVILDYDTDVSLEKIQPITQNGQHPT

[7] = molecular target: T4, Gastric inhibitory polypeptide receptor (Homo sapiens, UniProt P48546)
T4 sequence (P48546 whole entry): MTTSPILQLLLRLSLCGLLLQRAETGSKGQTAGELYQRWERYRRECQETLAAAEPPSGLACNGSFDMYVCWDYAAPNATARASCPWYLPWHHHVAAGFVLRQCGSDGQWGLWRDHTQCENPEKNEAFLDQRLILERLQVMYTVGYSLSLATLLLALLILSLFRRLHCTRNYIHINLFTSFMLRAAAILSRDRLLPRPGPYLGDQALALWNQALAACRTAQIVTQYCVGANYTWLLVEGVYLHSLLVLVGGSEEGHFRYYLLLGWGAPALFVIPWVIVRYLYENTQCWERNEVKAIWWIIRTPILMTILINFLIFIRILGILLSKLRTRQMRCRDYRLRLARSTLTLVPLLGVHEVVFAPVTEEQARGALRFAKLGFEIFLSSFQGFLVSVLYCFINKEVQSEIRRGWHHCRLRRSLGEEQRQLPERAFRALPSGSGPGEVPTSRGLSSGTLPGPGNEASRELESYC

[8] = molecular target: T5, Neuropeptide Y receptor type 2 (Homo sapiens, UniProt P49146)
T5 sequence (P49146 whole entry): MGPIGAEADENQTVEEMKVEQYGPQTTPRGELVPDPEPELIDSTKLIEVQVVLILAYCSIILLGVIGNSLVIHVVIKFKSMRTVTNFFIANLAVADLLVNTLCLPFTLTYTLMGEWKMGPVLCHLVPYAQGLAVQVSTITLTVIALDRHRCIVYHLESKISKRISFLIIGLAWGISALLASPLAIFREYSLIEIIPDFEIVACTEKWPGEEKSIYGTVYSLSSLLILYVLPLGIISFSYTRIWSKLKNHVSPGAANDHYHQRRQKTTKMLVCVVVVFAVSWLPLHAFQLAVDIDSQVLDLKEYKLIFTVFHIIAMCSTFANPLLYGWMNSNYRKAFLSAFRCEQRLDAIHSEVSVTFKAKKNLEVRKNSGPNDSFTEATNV

[9] = molecular target: T6, 5-hydroxytryptamine receptor 1A (Homo sapiens, UniProt P08908)
T6 sequence (P08908 whole entry): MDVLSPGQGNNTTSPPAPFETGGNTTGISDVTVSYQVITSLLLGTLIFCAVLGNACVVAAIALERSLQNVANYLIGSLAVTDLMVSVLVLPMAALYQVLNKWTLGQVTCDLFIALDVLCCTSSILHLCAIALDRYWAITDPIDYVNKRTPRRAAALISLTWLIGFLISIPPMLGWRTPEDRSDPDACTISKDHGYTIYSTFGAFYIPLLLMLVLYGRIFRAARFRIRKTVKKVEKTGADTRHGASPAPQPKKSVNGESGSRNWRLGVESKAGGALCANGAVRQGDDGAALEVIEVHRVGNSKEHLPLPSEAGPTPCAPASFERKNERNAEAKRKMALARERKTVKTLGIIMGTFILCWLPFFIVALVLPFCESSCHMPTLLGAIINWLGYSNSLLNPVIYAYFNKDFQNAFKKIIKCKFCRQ
Further: assay procedure not described here.

5-hydroxytryptamine receptor 2A, sequence (P28223 whole entry): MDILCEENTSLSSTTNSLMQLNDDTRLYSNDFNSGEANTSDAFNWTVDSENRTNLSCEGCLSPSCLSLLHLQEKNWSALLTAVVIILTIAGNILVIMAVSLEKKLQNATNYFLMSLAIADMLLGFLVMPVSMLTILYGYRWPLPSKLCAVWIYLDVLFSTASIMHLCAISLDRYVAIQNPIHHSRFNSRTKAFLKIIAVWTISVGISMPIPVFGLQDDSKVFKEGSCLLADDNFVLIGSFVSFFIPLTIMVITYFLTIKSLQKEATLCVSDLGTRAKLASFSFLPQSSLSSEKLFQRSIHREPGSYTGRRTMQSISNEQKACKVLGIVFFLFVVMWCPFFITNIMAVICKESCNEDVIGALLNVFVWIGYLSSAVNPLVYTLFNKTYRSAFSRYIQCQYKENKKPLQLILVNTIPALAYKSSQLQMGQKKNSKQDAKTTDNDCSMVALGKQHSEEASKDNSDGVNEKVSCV

Compound | AC50 [1] | AC50 [2] | AC50 [3] | AC50 [4] | AC50 [5] | AC50 [6] | AC50 (Cannabinoid receptor 1) | AC50 (D(1A) dopamine receptor) | AC50 [7] | AC50 [8] | AC50 [9]
CN(C)CC/C=C1\c2ccccc2CSc2ccccc21 [DOTHIEPIN] | 4.8 µM | 3.2 µM |  |  |  |  |  |  |  |  | 
CN1CCN(C2=Nc3ccccc3Sc3ccc(Cl)cc32)CC1 [CLOTHIAPINE] | 1 µM |  |  |  |  |  |  |  |  |  | 
COc1cc2nc(N3CCN(C(=O)c4ccco4)CC3)nc(N)c2cc1OC [PRAZOSIN] |  |  | 2.57 µM | > 30 µM | > 30 µM | > 30 µM | > 10 µM | > 10 µM | > 30 µM | > 30 µM | 
C=CCN1C[C@H](C(=O)N(CCCN(C)C)C(=O)NCC)C[C@@H]2c3cccc4[nH]cc(c34)C[C@H]21 [CABERGOLINE] |  | 3.62 µM | 0.0086 µM |  |  |  |  |  |  |  | 0.073 µM
CCCC1O[C@@H]2C[C@H]3[C@@H]4CCC5=CC(=O)C=C[C@]5(C)[C@H]4[C@@H](O)C[C@]3(C)[C@]2(C(=O)CO)O1 (stereo not given in full) [BUDESONIDE] |  | > 10 µM |  |  |  |  | > 10 µM |  |  |  | 
O=[N+]([O-])O[C@@H]1CO[C@H]2[C@@H]1OC[C@@H]2O [ISOSORBIDE MONONITRATE] |  | > 10 µM | > 10 µM | > 30 µM | > 30 µM | > 30 µM | > 10 µM | > 10 µM | > 30 µM | > 30 µM | > 10 µM
COc1ccccc1N1CCN(CC(O)COc2cccc3ccccc23)CC1 (stereo not given) [NAFTOPIDIL] | 9.2 µM | 0.543 µM | 0.047 µM |  |  |  |  |  |  |  | 
COC1=C(OC)C(=O)C(C/C=C(\C)CC/C=C(\C)CC/C=C(\C)CC/C=C(\C)CC/C=C(\C)CC/C=C(\C)CC/C=C(\C)CC/C=C(\C)CC/C=C(\C)CCC=C(C)C)=C(C)C1=O [UBIDECARENONE] | > 30 µM |  |  |  |  |  |  |  |  |  | 
Cc1cc(C)c(NC(=O)CN(CC(=O)O)CC(=O)O)c(C)c1Br [MEBROFENIN] | > 30 µM |  |  |  |  |  |  |  |  |  | 
CC[C@H]1CN2CCc3cc(OC)c(OC)cc3[C@@H]2C[C@@H]1C[C@H]1NCCc2cc(OC)c(OC)cc21 [EMETINE] |  | 6 µM |  |  |  |  |  |  |  |  | 
Cc1oc(=O)oc1CN1CCN(c2cc3c(cc2F)c(=O)c(C(=O)O)c2n3C(C)S2)CC1 (stereo not given) [PRULIFLOXACIN] | > 30 µM |  |  |  |  |  |  |  |  |  | 
COc1ccc(C(=O)Nc2ccccc2CCC2CCCCN2C)cc1 (stereo not given) [ENCAINIDE] | 2.2 µM | > 10 µM | 3.66 µM | > 30 µM | > 30 µM | > 30 µM | > 10 µM | > 10 µM | > 30 µM | > 30 µM | > 10 µM
CCCCCNC(=N)N/N=C/c1c[nH]c2ccc(OC)cc12 [TEGASEROD] | 1.5 µM | 2.05 µM | 0.0206 µM | > 30 µM | > 30 µM | > 30 µM | 10 µM | 0.942 µM | > 30 µM | > 30 µM | 0.169 µM
CC[C@@H](C(N)=O)N1CCCC1=O | > 30 µM |  |  |  |  |  |  |  |  |  | 
O=[N+]([O-])c1cn2c(n1)OC[C@@H](OCc1ccc(OC(F)(F)F)cc1)C2 [PRETOMANID] |  |  | > 10 µM |  | > 10 µM | > 30 µM |  | > 10 µM |  | > 30 µM | > 10 µM
CN(C)CCC=C1c2ccccc2C=Cc2ccccc21 [CYCLOBENZAPRINE] |  | 0.261 µM |  | > 30 µM | > 30 µM | > 30 µM | > 10 µM |  | > 30 µM | > 30 µM | 4.94 µM
CCOc1ccc(Cc2cc([C@@H]3O[C@H](CO)[C@@H](O)[C@H](O)[C@H]3O)ccc2Cl)cc1 [DAPAGLIFLOZIN] |  | > 10 µM | > 10 µM |  |  |  | > 10 µM | > 10 µM |  |  | > 10 µM
CCOc1ccccc1OCC1CNCCO1 (stereo not given) [VILOXAZINE] |  | 11.2 µM | 2.34 µM | > 30 µM | > 30 µM | > 30 µM | > 10 µM | > 10 µM | > 30 µM | > 30 µM | > 10 µM
